Experiment [1] deals with Mycobacterium tuberculosis variant bovis. Kind of experiment: Antimycobacterial activity against pyrazinamide-resistant Mycobacterium bovis ATCC 35720 assessed as growth inhibition after 24 hrs to 2 weeks by microbroth dilution method. Type of experiment: functional.
For experiment [2] the test system is unchanged. The experiment in a line: Antimycobacterial activity against pyrazinamide-resistant Mycobacterium bovis ATCC 27289 assessed as growth inhibition after 24 hrs to 2 weeks by microbroth dilution method. It counts as functional.

In brackets after ≈: the same amount, converted by molar mass.

On to `NC(=O)c1cnc(Cl)cn1`, for which the MIC in experiment [1] and in experiment [2] was 8 µg/mL (≈ 50.8 µM) throughout.

In general, MIC refers to the smallest concentration in the dilution series that meets the test's criterion for growth inhibition.
